Data reported in patent publication US20210038607A1, “OXADIAZOLYLTHIOPHENE DERIVATIVES USEFUL AS HISTONE DEACETYLASE INHIBITORS” (Karus Therapeutics Limited, priority 2018, published 2021).

Experiments:
[1] = target: T1, Human HDAC7 (Homo sapiens, UniProt Q8WUI4); assay: HDAC7 biochemical assay, class IIa-specific substrate; conditions: read-out: HDAC Isoform IC50 (nM) 7
T1 construct: (a.a. 518-end) with N-terminal GST tag; GST (N); host or cells: baculovirus expression system
T1 sequence (Q8WUI4 518-952 limits assumed): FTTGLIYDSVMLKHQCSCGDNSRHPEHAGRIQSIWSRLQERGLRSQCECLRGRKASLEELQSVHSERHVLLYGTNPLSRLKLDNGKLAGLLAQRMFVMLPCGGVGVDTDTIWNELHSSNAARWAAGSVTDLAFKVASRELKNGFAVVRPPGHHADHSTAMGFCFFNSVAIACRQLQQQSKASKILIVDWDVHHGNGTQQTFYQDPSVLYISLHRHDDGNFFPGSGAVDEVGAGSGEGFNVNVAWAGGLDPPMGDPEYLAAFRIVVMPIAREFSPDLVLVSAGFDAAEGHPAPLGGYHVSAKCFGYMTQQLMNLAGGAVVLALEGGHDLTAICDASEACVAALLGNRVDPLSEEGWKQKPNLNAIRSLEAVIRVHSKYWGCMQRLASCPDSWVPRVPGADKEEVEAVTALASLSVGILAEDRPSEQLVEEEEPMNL
Procedure, shortened: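 GST-tagged HDAC7 (a.a. 518-end, baculovirus-expressed) at 0.001 ng/ul with 50 μM Boc-Lys(trifluoroacetyl)-AMC substrate, 30 min at room temperature in pH 8.0 Tris buffer with BSA, 1% DMSO final. Developer then releases AMC; fluorescence read at 360/460 nm.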

[2] = test system: acetylated histone H3 in A549 lung adenocarcinoma cells; assay: Acetylated histone H3 in-cell western (ICW) assay; assay type: cell-based; conditions: Homo sapiens, 16 h exposure, relative to 40 μM Trichostatin A positive control, read-out: EC50 Ac-histone H3, A549 cells
Description: (§1) Acetylated α-Tubulin and Histone H3 in-Cell Western (ICW) Assays
(§2) A549 cells were maintained in DMEM (Life Technologies)+10% FBS+2 mM glutamine & penicillin (10 μg/mL) and streptomycin ([…]. 10,000 A549 cells per well were plated into 96 well tissue culture plates (Corning) and incubated at 37° C. overnight in a humidified atmosphere containing 5% CO2 prior to addition of compounds. Compounds (dissolved in 100% DMSO) were diluted into cell culture media at 2× final assay concentration. 2× compound or DMSO (negative control) were added to cells (final DMSO concentration 0.4%). Untreated control wells received media. For acetylated α-tubulin assays, 40 μM scriptaid was used as a positive control. For acetylated histone H3 assays, 40 μM Trichostatin A (TSA) was used as a positive control. Cells were exposed to compound at 37° C. in a humidified atmosphere containing 5% CO2 for 16 h.
(§3) Measurement of the impact of compounds on levels of acetylated α-tubulin and histone H3 was performed using specific antibodies and near-infrared immunofluorescent dyes. Briefly, media was removed from wells of assay plates. Cells were washed once with PBS and fixed in 3.7% formaldehyde PBS solution at room temperature for 20 min. Cells were then permeabilised by washing 5 times in 0.1% triton-X-100 PBS at room temperature with gentle agitation for 5 min per wash. Non-specific antibody staining was blocked by the addition of Odyssey blocking buffer (Li-Cor) for 1.5 h at room temperature with gentle agitation. Cells were then incubated with primary antibody (mouse monoclonal anti-acetylated α-tubulin (clone 6-11B-1), Sigma or rabbit polyclonal anti-acetylated histone H3, Millipore) diluted in Odyssey blocking buffer at 4° C. with gentle shaking overnight (no antibody control and secondary antibody only wells were incubated with Odyssey blocking buffer only). Cells were washed five times with 0.1% tween PBS and labelled with secondary antibody (IR dye 800CW-conjugated goat anti mouse IgG or -goat anti rabbit IgG, Li-Cor) and cell stains Sapphire700 (Li-Cor) and Draq5 (Biostatus) diluted in Odyssey blocking buffer at room temperature in the dark with gentle shaking for 1 h (no antibody control wells were incubated with Odyssey blocking buffer only and secondary antibody only with diluted secondary antibody but no cell stains). Cells were washed with 0.1% Tween PBS five times and scanned using a Li-Cor Odyssey SA plate reader in 700 and 800 nm channels. Acetylated α-tubulin or histone H3 signal was normalised to cell number using the cell stain signal. Percentage increase in acetylated α-tubulin or histone H3 after compound treatment over the mean of DMSO treated controls, relative to scriptaid and TSA positive controls, respectively was calculated. EC50 values were calculated using GraphPad Prism software and nonlinear regression with 0% bottom and 100% top constraints.

[3] = test system: acetylated α-tubulin in A549 lung adenocarcinoma cells; assay: Acetylated α-tubulin in-cell western (ICW) assay; assay type: cell-based; conditions: Homo sapiens, 16 h exposure, relative to 40 μM scriptaid positive control, read-out: EC50 Ac-α-tubulin, A549 cells
Description: as §1, §2, §3

[4] = target: T2, Human HDAC1 (Homo sapiens, UniProt Q13547); assay: HDAC1 biochemical assay, AMC-labeled peptide substrate; conditions: read-out: HDAC Isoform IC50 (nM) 1
T2 construct: full length with C-terminal His-tag and C-terminal FLAG-tag; His (C); FLAG (C); host or cells: baculovirus expression system
T2 sequence (Q13547 whole entry, canonical isoform): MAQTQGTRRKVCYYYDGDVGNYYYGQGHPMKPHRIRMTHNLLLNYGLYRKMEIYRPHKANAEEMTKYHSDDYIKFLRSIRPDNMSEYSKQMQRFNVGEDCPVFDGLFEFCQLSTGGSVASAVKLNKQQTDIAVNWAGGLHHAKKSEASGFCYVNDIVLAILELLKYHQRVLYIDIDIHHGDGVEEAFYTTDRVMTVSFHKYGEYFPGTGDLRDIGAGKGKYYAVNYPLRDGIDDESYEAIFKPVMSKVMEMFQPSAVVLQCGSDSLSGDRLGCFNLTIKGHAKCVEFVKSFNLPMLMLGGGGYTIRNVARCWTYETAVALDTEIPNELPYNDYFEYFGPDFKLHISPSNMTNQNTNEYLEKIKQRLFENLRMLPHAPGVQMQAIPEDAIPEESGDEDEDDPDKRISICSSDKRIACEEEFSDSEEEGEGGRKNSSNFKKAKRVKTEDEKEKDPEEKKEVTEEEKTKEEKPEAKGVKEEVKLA
Procedure, shortened: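 Baculovirus-expressed full-length human HDAC1 with His and FLAG tags, 0.3 ng/ul, incubated 1 h at 30° C with compound and 50 μM RHKK(Ac)AMC in Tris pH 8.0 buffer with BSA and 1% DMSO. Developer then releases AMC from deacetylated substrate; fluorescence read at 360/460 nm.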

Row | Structure (SMILES) | IC50 [1] | EC50 [2] | EC50 [3] | IC50 [4]
1 | O=C(c1cnnc(N(Cc2ccc(-c3noc(C(F)(F)F)n3)s2)c2cnccn2)c1)N1C[C@@H]2C[C@H]1CO2 [Example FV, 5-[(1S,4S)-2-Oxa-5-azabicyclo[2.2.1]heptane-5-carbonyl]-N-(pyrazin-2-yl)-N-({5-[5-(trifluoromethyl)-1,2,4-oxadiazol-3-yl]thiophen-2-yl}methyl)pyridazin-3-amine] | ≤ 10000 nM | ≥ 10 µM | ≤ 1000 nM | > 10000 nM
2 | O=C(c1nccnc1N(Cc1ccc(-c2noc(C(F)(F)F)n2)s1)c1cnccn1)N1CCC1 [Example GP, 3-(Azetidine-1-carbonyl)-N-(pyrazin-2-yl)-N-({5-[5-(trifluoromethyl)-1,2,4-oxadiazol-3-yl]thiophen-2-yl}methyl)pyrazin-2-amine] | ≤ 10000 nM | ≥ 10 µM | 1000 to 10000 nM | > 10000 nM
3 | FC(F)(F)c1nc(-c2ccc(CN(c3cnccn3)c3cc(CN4CCOCC4)ccn3)s2)no1 [Example GI, N-{4-[(Morpholin-4-yl)methyl]pyridin-2-yl}-N-({5-[5-(trifluoromethyl)-1,2,4-oxadiazol-3-yl]thiophen-2-yl}methyl)pyrazin-2-amine] | ≤ 10000 nM | ≥ 10 µM | ≤ 1000 nM | > 10000 nM
4 | O=C(c1cnnc(N(Cc2ccc(-c3noc(C(F)(F)F)n3)s2)c2cnccn2)c1)N1CC(C(F)F)C1 [Example GK, 5-[3-(Difluoromethyl)azetidine-1-carbonyl]-N-(pyrazin-2-yl)-N-({5-[5-(trifluoromethyl)-1,2,4-oxadiazol-3-yl]thiophen-2-yl}methyl)pyridazin-3-amine] | ≤ 500 nM | ≥ 10 µM | ≤ 1000 nM | ≤ 10000 nM
5 | FC(F)(F)c1nc(-c2ccc(CN(c3cnccn3)c3ccc(CN4CCOCC4)nn3)s2)no1 [Example FN, 6-[(Morpholin-4-yl)methyl]-N-(pyrazin-2-yl)-N-({5-[5-(trifluoromethyl)-1,2,4-oxadiazol-3-yl]thiophen-2-yl}methyl)pyridazin-3-amine] | ≤ 1000 nM | ≥ 10 µM | ≤ 1000 nM | > 10000 nM
6 | FC(F)(F)c1cnnc(N(Cc2ccc(-c3noc(C(F)(F)F)n3)s2)c2cnccn2)c1 [Example EF, N-(Pyrazin-2-yl)-5-(trifluoromethyl)-N-({5-[5-(trifluoromethyl)-1,2,4-oxadiazol-3-yl]thiophen-2-yl}methyl)pyridazin-3-amine] | ≤ 10000 nM | ≥ 10 µM | 1000 to 10000 nM | > 10000 nM
7 | O=C(c1ccc(N(Cc2ccc(-c3noc(C(F)(F)F)n3)s2)c2cnccn2)nn1)N1CC(O)(C(F)(F)F)C1 [Example FK, 1-{6-[(Pyrazin-2-yl)({5-[5-(trifluoromethyl)-1,2,4-oxadiazol-3-yl]thiophen-2-yl}methyl)amino]pyridazine-3-carbonyl}-3-(trifluoromethyl)azetidin-3-ol] | ≤ 500 nM | ≥ 10 µM | ≤ 1000 nM | > 10000 nM
8 | O=C(O)c1cnnc(N(Cc2ccc(-c3noc(C(F)(F)F)n3)s2)c2cc(C(F)(F)F)cnn2)c1 [Example ES, 6-[({5-[5-(Trifluoromethyl)-1,2,4-oxadiazol-3-yl]thiophen-2-yl}methyl)[5-(trifluoromethyl)pyridazin-3-yl]amino]pyridazine-4-carboxylicacid] | ≤ 10000 nM | ≥ 10 µM | ≥ 10000 nM | > 10000 nM
9 | Cc1cnc(N(Cc2ccc(-c3noc(C(F)(F)F)n3)s2)c2cnccn2)cn1 [Example BH, 5-Methyl-N-(pyrazin-2-yl)-N-({5-[5-(trifluoromethyl)-1,2,4-oxadiazol-3-yl]thiophen-2-yl}methyl)pyrazin-2-amine] | ≤ 1000 nM | ≥ 10 µM | 1000 to 10000 nM | ≤ 10000 nM
10 | NC(=O)c1cnnc(N(Cc2ccc(-c3noc(C(F)(F)F)n3)s2)c2cnccn2)c1 [Example DX, 6-[(Pyrazin-2-yl)({5-[5-(trifluoromethyl)-1,2,4-oxadiazol-3-yl]thiophen-2-yl}methyl)amino]pyridazine-4-carboxamide] | ≤ 500 nM | ≥ 10 µM | ≤ 1000 nM | > 10000 nM

Further lines, results first:

Row | IC50 [1] | EC50 [2] | EC50 [3] | IC50 [4] | Structure (SMILES)
11 | ≤ 10000 nM | ≥ 10 µM | ≤ 1000 nM | > 10000 nM | COc1cncc(N(Cc2ccc(-c3noc(C(F)(F)F)n3)s2)c2cc(C(F)(F)F)cnn2)n1 [Example EN, N-(6-Methoxypyrazin-2-yl)-5-(trifluoromethyl)-N-({5-[5-(trifluoromethyl)-1,2,4-oxadiazol-3-yl]thiophen-2-yl}methyl)pyridazin-3-amine]
12 | ≤ 10000 nM | ≥ 10 µM | ≤ 1000 nM | > 10000 nM | O=C(c1cnnc(N(Cc2ccc(-c3noc(C(F)(F)F)n3)s2)c2cnccn2)c1)N1C[C@H]2C[C@@H]1CO2 [Example FW, 5-[(1R,4R)-2-Oxa-5-azabicyclo[2.2.1]heptane-5-carbonyl]-N-(pyrazin-2-yl)-N-({5-[5-(trifluoromethyl)-1,2,4-oxadiazol-3-yl]thiophen-2-yl}methyl)pyridazin-3-amine]
13 | ≤ 500 nM | ≥ 10 µM | ≤ 1000 nM | ≤ 10000 nM | O=C(c1ccc(N(Cc2ccc(-c3noc(C(F)(F)F)n3)s2)c2cnccn2)nn1)N1CC[S+]([O-])CC1 [Example FD, 4-{6-[(Pyrazin-2-yl)({5-[5-(trifluoromethyl)-1,2,4-oxadiazol-3-yl]thiophen-2-yl}methyl)amino]pyridazine-3-carbonyl}-1lambda4-thiomorpholin-1-one]
14 | ≤ 1000 nM | ≥ 10 µM | ≤ 1000 nM | > 10000 nM | CN(C)C1CN(C(=O)c2cnnc(N(Cc3ccc(-c4noc(C(F)(F)F)n4)s3)c3cnccn3)c2)C1 [Example FX, 5-[3-(Dimethylamino)azetidine-1-carbonyl]-N-(pyrazin-2-yl)-N-({5-[5-(trifluoromethyl)-1,2,4-oxadiazol-3-yl]thiophen-2-yl}methyl)pyridazin-3-amine]
15 | ≤ 500 nM | ≥ 10 µM | ≤ 1000 nM | > 10000 nM | O=C(c1ccc(N(Cc2ccc(-c3noc(C(F)(F)F)n3)s2)c2cnccn2)nn1)N1CCCCC1 [Example FG, 6-(Piperidine-1-carbonyl)-N-(pyrazin-2-yl)-N-({5-[5-(trifluoromethyl)-1,2,4-oxadiazol-3-yl]thiophen-2-yl}methyl)pyridazin-3-amine]
16 | ≤ 10000 nM | ≥ 10 µM | ≤ 1000 nM | ≤ 10000 nM | COC1(C(F)(F)F)CN(C(=O)c2cnnc(N(Cc3ccc(-c4noc(C(F)(F)F)n4)s3)c3cnccn3)c2)C1 [Example GL, 5-[3-Methoxy-3-(trifluoromethyl)azetidine-1-carbonyl]-N-(pyrazin-2-yl)-N-({5-[5-(trifluoromethyl)-1,2,4-oxadiazol-3-yl]thiophen-2-yl}methyl)pyridazin-3-amine]
